Laboratory results taken from ChEMBL document CHEMBL1201862, “PubChem BioAssay data set” (2004).
Calls of active or inactive are those of the source. For most assays here, no stated cut-off is given here; in the data, actives have a measured EC50 and inactives only a lower limit.

Key:
[1] = luciferase reporter signal suppression in cells – H4 neuroglioma cells, luminescence, dose response (AID 1990); type: functional, cell-based
[2] = luciferase reporter signal reduction – luminescence, H4-C neuroglioblastoma cells, dose response (AID 2458); type: functional, cell-based;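 further: H4 neuroglioblastoma cells stably carrying a luciferase reporter gene fusion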
BJ [3] = assay: BJ-TERT fibroblast viability loss – cell-based, RAS-independent, luminescence, dose response (AID 1933); type: functional; details: Homo sapiens
cells [4] = type: functional, cell-based
[5] = alpha-synuclein stem-loop luciferase translation blockers – H4 neuroglioma cells, luminescence, confirmation (AID 1988); type: functional, cell-based
BJ [6] = assay: cells; type: functional, cell-based; details: Homo sapiens
BJ [7] = assay: BJ-TERT-LT-ST fibroblast viability loss – cell-based, RAS-independent, luminescence, dose response (AID 1935); type: functional; details: Homo sapiens;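 further: BJ fibroblasts immortalized with TERT plus LT and ST oncogenes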
[8] = DRD fibroblast viability loss – cell-based, non-viral oncogenic, luminescence, dose response (AID 1934); type: functional; details: Homo sapiens
[9] = alpha-synuclein stem-loop translation blockers – luminescence, H4 neuroglioblastoma cells, dose confirmation, confirmation (AID 2454); type: functional, cell-based;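 further: H4 neuroglioblastoma cells carrying an alpha-synuclein 5'UTR luciferase reporter; potency for inhibition of the luciferase signal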
Jurkat = assay: blockers of NF-kB activation in T cells – Jurkat, luciferase reporter, luminescence, B- and T-cell, dose response (AID 489004); type: functional, cell-based; details: Homo sapiens;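 further: NF-kB luciferase reporter Jurkat cells stimulated with PMA plus ionomycin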
[10] = HEK-293T viability loss, compound-treated – cell-based, uHTS hits, cytotoxicity control for B/T-cell NF-kB inhibitor project, dose response (AID 489019); type: functional;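 further: IC50 reflects cytotoxicity as loss of cell viability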
Paired box protein Pax-8 = Paired box protein Pax-8 (Homo sapiens, UniProt Q06710); assay: PAX8 transcriptional activity inhibition in RMG-I – RMG-I cells, luciferase, cherry-pick, dose response (AID 687027); type: functional, cell-based;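 further: luciferase reporter driven by Pax8 target thyroperoxidase promoter measured by SteadyGlo luminescence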
Cytochrome P450 1A2 = molecular target: T1, Cytochrome P450 1A2 (Homo sapiens, UniProt P05177);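 further: PubChem cytochrome P450 panel assay, CYP1A2 panel member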
T1 sequence (P05177 whole entry): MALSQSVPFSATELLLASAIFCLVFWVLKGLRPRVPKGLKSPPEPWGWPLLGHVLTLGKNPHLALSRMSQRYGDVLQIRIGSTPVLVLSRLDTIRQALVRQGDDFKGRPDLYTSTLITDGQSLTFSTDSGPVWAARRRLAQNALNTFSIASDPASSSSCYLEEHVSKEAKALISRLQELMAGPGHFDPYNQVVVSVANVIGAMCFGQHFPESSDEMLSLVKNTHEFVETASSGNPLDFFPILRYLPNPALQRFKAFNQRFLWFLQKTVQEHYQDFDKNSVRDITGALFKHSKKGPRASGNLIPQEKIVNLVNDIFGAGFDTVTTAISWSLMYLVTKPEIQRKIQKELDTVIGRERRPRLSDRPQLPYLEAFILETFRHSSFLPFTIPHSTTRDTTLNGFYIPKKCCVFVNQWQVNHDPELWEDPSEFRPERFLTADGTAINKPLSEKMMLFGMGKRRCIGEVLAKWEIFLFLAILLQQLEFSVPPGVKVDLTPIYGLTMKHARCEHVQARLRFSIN

ORF 73 = molecular target: T2, ORF 73 (Human herpesvirus 8, UniProt O40947); assay: KSHV LANA DNA-binding disruption – biochemical, fluorescence polarization, cherry-picked samples, dose response (AID 504725); set-up: species or system Human gammaherpesvirus 8;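 further: fluorescence polarization of a labeled DNA duplex reporting LANA DNA binding; potency is for inhibitors that block LANA binding to the DNA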
T2 sequence (O40947 whole entry): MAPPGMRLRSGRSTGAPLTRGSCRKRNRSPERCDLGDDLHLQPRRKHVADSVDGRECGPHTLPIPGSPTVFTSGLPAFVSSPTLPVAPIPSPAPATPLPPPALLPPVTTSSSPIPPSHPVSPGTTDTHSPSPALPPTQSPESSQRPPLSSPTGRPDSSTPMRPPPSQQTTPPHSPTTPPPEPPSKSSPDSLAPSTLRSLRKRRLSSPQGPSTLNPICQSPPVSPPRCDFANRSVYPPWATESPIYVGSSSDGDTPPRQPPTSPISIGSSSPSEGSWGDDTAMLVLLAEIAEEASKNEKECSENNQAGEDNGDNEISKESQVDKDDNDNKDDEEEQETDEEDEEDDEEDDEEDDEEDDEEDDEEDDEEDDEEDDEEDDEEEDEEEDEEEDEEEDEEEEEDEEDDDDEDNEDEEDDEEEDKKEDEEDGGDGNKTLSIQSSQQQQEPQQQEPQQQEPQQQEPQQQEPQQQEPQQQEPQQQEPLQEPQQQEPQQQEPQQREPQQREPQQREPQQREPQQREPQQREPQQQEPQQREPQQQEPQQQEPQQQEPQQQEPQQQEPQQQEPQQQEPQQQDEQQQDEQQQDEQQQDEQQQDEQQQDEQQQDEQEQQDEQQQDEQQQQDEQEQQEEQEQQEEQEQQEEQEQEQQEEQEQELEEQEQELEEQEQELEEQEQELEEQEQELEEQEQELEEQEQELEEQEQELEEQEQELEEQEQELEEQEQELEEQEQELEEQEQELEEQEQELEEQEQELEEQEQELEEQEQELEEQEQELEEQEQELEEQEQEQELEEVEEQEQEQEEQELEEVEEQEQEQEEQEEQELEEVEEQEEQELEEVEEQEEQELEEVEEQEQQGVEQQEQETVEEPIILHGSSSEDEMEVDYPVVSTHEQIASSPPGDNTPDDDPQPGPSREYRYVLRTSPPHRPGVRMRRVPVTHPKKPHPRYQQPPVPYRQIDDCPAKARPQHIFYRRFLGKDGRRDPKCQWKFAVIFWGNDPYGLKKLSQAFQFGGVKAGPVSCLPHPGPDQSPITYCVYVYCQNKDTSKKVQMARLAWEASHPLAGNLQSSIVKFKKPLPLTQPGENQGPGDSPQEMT

Keap1/Nrf2 = Keap1/Nrf2 (Homo sapiens, UniProt Q14145); assay: disruptors of Keap1 binding to Nrf2 peptide – biochemical, fluorescence polarization, cherry-picked samples, dose response (AID 588683)
Cytochrome P450 3A4 = Cytochrome P450 3A4 (Homo sapiens, UniProt P08684);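 further: CYP3A4 tested as one member of a cytochrome P450 panel screen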
[11] = NIH-3T3 fibroblast cytotoxicity, dose response, cytotoxicity control, cell-based, fluorescence, Alamar Blue, secondary assay (AID 2327); type: functional;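 further: NIH-3T3 mouse fibroblasts cultured with fluconazole at 8 µg/mL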
[12] = decrease of insulin promoter-GFP reporter – imaging, high-content screening, mouse beta cells (AID 1628); type: functional; details: MIN6
[13] = system: Streptococcus sp. 'group A'; assay: Streptococcus pyogenes SK(-)GAS viability under kanamycin – luminescence, BacTiterGlo, confirmation, counter-screen for streptokinase expression inhibitor project, dose response (AID 1900); type: functional, organism-based
cells [14] = type: functional, cell-based; remark: listed apart in the source
[15] = MIN6 cell viability loss – mouse insulinoma, cytotoxicity control, dose response (AID 2122); type: functional;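 further: confirmatory high-throughput counterscreen run to flag cytotoxic compounds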
[16] = fluconazole-exposed Candida albicans growth modulators – fluorescence, retest, confirmation (AID 2467); type: functional, cell-based
[17] = HPDE-C7 pancreatic duct cell viability loss – fluorescence, HTS (AID 430); type: functional, cell-based; details: Homo sapiens
[18] = viability loss of HPDE-C7K cells – cell-based, fluorescence, HTS, primary screen (AID 431); type: functional; details: Homo sapiens
cells [19] = type: functional, cell-based; remark: listed apart in the source
[20] = molecular target: T3, Serine/threonine-protein phosphatase (Candida dubliniensis (strain CD36 / CBS 7987 / NCPF 3949 / NRRLY-17841) (Yeast), UniProt B9W6M3); assay: blockers of CaCl2-induced CDRE-lacZ signaling – S. cerevisiae, luminescence, secondary, dose response (AID 2388); type: functional, cell-based;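 further: yeast reporter cells carrying a calcineurin-responsive lacZ construct stimulated with calcium chloride; luminescent beta-galactosidase reporter signal in whole cells rather than isolated phosphatase activity; potency for inhibition where a drop in reporter signal means calcineurin blockade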
T3 sequence (B9W6M3 whole entry): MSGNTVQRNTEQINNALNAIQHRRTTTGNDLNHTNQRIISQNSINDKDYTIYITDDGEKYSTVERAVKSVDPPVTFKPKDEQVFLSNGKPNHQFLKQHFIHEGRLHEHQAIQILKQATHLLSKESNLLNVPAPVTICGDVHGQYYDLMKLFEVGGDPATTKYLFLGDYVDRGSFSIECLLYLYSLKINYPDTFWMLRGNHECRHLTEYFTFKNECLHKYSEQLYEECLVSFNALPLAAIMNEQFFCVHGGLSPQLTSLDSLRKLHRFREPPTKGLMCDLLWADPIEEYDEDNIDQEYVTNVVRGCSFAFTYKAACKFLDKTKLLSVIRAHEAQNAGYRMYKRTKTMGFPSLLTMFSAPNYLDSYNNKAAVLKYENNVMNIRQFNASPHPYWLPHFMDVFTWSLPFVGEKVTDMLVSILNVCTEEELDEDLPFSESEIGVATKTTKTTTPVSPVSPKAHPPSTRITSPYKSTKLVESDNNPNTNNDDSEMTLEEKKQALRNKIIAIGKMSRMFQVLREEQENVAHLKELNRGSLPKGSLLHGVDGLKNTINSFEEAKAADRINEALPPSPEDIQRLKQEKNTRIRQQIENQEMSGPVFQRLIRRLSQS

Streptococcus = assay: GAS UMAA2166 growth inhibition – luminescence, BacTiterGlo, counter-screen for streptokinase expression inhibitor project, dose response (AID 1915); type: functional, organism-based;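 further: potency for reduction of bacterial viability or growth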
Exodeoxyribonuclease V = Exodeoxyribonuclease V (Escherichia coli (strain K12), UniProt P04993+P07648+P08394); assay: RecBCD inhibition via phage-restricted bacterial growth – absorbance, V66 E. coli, mutant T4 phage, counter-screen for AddAB inhibitor project, dose response (AID 492957); type: functional, cell-based, Escherichia coli str. K-12 substr. MG1655
[21] = Counterscreen for AddAB inhibitors: absorbance-based bacterial cell-based high throughput dose response assay for inhibitors of bacterial viability. [Related pubchem assays (depositor defined):AID435030, AID449728, AID449731, AID488942, AID488955, AID488956]; type: functional
HEK293 = assay: EBV LMP1 TES2 canonical NF-kB signalling blockers – cell-based, HEK293, luciferase, cherry-pick, dose response (AID 588343); type: functional; details: Homo sapiens
[22] = molecular target: Heat shock protein HSP 90-alpha (Homo sapiens, UniProt P07900); type: functional, organism-based
Vero = assay: cells; type: functional, cell-based; details: Chlorocebus sabaeus
[23] = molecular target: ATP-dependent molecular chaperone HSP82 (Candida albicans (strain WO-1) (Yeast), UniProt C4YTQ8); assay: steroid-induced GRE reporter decrease in yeast – S. cerevisiae, luminescence, Hsp90 inhibitor project, dose response (AID 2400); type: functional, cell-based;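 further: beta-galactosidase luminescence from glucocorticoid response element reporter as proxy for Hsp90 function; inhibitor potency where signal loss means Hsp90 inhibition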
[24] = molecular target: Beta-adrenergic receptor kinase 1 (Homo sapiens, UniProt P25098); assay: blockers of aptamer binding to GRK2 – biochemical, flow cytometry beads, FAM-aptamer, powder set 1, dose response (AID 588720)
[25] = molecular target: T4, Carboxy-terminal domain RNA polymerase II polypeptide A small phosphatase 1 (Homo sapiens, UniProt Q9GZU7); assay: CTDSP1 inhibitors, concentration-response, biochemical, absorbance readout, ultra-high-throughput screen actives (AID 540297); type: functional
T4 sequence (Q9GZU7 whole entry): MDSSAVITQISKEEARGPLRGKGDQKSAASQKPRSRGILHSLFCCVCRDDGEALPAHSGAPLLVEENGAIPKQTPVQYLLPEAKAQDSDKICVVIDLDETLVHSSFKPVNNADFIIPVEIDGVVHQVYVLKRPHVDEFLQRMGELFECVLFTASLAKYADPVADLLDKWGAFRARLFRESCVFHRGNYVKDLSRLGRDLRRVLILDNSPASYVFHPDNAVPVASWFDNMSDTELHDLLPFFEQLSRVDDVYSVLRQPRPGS

Beta-adrenergic receptor kinase 1, sequence (P25098 whole entry, the tested form may be a part): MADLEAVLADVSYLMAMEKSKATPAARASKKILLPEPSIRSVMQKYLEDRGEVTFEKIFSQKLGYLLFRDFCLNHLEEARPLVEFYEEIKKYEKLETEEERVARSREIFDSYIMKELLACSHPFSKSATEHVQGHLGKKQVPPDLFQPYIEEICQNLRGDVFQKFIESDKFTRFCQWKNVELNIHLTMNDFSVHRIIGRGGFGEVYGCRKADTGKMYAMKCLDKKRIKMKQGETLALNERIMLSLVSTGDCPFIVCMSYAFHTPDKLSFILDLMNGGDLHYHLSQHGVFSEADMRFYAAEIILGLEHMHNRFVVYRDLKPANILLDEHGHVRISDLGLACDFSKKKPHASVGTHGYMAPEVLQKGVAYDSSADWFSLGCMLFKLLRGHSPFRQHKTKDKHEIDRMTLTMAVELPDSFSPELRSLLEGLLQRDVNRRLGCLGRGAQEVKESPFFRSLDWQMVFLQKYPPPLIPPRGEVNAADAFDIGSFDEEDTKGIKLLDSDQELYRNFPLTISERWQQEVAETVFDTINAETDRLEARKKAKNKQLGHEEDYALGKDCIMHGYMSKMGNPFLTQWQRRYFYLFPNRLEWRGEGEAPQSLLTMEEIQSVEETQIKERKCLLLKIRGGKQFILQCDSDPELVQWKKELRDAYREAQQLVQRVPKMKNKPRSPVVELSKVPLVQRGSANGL
ATP-dependent molecular chaperone HSP82, sequence (C4YTQ8 whole entry): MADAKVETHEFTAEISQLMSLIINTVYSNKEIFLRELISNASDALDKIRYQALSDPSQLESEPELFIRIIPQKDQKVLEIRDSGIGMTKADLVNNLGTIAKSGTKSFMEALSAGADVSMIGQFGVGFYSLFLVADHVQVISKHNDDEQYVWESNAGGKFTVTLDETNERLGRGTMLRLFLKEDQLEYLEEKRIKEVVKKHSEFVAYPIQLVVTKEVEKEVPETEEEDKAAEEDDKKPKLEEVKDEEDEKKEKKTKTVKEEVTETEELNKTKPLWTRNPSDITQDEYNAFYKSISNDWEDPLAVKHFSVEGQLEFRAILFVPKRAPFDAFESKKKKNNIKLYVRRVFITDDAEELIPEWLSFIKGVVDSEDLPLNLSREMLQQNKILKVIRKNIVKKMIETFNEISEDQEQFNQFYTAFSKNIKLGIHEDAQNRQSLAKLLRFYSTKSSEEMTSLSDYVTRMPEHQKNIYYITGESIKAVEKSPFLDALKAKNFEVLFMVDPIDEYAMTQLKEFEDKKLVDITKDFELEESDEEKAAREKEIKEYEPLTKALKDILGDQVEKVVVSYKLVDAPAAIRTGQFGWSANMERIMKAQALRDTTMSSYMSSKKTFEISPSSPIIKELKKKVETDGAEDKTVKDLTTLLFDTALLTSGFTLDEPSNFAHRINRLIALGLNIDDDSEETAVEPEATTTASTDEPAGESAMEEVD
Cytochrome P450 3A4, sequence (P08684 whole entry): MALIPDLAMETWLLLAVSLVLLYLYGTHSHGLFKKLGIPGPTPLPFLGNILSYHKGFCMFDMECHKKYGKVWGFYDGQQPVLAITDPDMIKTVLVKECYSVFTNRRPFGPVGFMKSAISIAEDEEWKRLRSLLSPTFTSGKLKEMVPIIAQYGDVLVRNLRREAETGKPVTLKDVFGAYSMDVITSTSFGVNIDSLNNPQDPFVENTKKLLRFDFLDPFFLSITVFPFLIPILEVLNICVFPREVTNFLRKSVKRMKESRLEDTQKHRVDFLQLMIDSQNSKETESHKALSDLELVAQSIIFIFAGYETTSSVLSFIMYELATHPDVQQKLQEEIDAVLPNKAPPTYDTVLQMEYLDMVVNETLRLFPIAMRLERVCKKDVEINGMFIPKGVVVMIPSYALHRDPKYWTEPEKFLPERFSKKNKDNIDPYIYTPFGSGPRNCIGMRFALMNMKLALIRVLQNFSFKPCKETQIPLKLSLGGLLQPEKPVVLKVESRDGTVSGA
Keap1/Nrf2, sequence (Q16236 whole entry): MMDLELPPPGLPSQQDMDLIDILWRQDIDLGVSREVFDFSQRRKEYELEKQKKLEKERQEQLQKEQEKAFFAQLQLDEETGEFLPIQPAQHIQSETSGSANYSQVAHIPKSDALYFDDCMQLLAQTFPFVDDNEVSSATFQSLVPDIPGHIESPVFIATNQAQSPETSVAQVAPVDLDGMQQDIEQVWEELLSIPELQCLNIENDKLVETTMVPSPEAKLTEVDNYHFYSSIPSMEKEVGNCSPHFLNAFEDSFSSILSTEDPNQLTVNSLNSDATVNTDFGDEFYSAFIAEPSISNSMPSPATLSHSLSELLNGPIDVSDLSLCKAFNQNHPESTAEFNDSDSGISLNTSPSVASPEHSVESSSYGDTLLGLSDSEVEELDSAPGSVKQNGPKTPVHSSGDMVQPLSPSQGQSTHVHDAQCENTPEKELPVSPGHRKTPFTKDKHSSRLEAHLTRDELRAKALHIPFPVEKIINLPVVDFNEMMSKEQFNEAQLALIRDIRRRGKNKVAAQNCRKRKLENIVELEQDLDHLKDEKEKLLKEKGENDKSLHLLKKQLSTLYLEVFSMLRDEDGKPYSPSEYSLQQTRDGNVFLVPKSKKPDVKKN
Keap1/Nrf2, sequence (Q14145 whole entry): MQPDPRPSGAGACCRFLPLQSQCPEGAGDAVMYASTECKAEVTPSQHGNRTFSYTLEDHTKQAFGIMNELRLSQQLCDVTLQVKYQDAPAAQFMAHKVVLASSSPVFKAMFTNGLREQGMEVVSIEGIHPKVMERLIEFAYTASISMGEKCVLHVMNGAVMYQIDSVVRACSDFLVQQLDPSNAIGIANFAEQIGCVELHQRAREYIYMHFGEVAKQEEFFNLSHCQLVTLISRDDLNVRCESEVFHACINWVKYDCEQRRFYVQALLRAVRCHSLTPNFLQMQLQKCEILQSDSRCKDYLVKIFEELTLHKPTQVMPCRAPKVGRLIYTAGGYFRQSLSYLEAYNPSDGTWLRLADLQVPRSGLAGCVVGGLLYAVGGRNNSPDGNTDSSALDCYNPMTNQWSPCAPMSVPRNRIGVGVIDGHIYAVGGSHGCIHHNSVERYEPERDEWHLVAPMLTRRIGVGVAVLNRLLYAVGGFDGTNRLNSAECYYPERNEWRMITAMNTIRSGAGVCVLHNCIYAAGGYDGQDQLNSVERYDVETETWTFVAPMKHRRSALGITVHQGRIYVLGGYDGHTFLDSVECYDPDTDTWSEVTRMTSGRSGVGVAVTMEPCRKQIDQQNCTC
Paired box protein Pax-8, sequence (Q06710 whole entry): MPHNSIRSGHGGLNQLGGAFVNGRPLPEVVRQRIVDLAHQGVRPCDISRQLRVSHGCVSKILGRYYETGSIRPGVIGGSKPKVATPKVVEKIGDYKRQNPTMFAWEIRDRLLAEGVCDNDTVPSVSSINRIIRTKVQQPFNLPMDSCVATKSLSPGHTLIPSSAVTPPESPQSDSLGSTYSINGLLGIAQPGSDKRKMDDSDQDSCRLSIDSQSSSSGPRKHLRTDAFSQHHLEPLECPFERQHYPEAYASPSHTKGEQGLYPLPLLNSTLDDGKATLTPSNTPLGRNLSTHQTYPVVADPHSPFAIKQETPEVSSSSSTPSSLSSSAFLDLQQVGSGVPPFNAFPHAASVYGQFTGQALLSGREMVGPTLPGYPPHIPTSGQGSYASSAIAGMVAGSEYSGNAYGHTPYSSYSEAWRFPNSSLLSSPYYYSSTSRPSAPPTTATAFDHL

O=C(c1ccc(Br)cc1)c1cc([N+](=O)[O-])ccc1N1CCCCC1
EC50 [1]: 0.623 µM (active) | EC50 [2]: 0.892 µM (active) | EC50 (BJ [3]): 0.697 µM (active) | EC50 (cells [4]): 1.49 µM (active) | EC50 [5]: < 0.1 µM (active) | EC50 (BJ [6]): 1.12 µM (inconclusive) | EC50 (BJ [7]): 0.464 µM (active) | EC50 [8]: 0.694 µM (active) | EC50 [9]: > 12 µM (inconclusive) | IC50 (Jurkat): > 80 µM (inactive) | IC50 [10]: > 80 µM (inactive) | AC50 (Paired box protein Pax-8): 2.73 µM (active) | AC50 (Cytochrome P450 1A2): 2 µM (inconclusive)

Cc1nc(Cl)c2c(n1)N=C1CCCC(O)=C1O2
AC50 (ORF 73): 8.8 µM (active) | AC50 (Keap1/Nrf2): 15.1 µM (active)

COCC(=O)N1CCC2(CC1)CN(C(c1ccccc1)c1ccccc1)C2
AC50 (Cytochrome P450 3A4): inconclusive

Oc1c(C(Nc2nc3ccccc3s2)c2ccco2)ccc2cccnc12 (stereo unspecified)
EC50 [11]: 12.9 µM (active) | IC50 [12]: 1.21 µM (active) | EC50 [13]: 1.76 µM (active) | EC50 (cells [14]): 9.09 µM (active) | IC50 [15]: 0.896 µM (active) | EC50 [16]: 0.854 µM (active) | EC50 [17]: 8.6 µM (active) | EC50 [18]: 6.19 µM (active) | EC50 (cells [19]): > 350 µM (not active) | EC50 [20]: > 180 µM (inactive) | EC50 (Streptococcus): 5.98 µM (active) | IC50 (Exodeoxyribonuclease V): > 119 µM (inactive) | IC50 [21]: > 119 µM (inactive) | AC50 (HEK293): 6.93 µM (active) | AC50 [22]: 24.1 µM (active) | IC50 (Vero): > 25 µM (active) | EC50 [23]: 33.4 µM (active)

O=C(CCS(=O)(=O)c1ccc(Br)cc1)NCc1cccs1
EC50 [24]: 1.79 µM (active) | IC50 [25]: 48 µM (active)

O=C(CCS(=O)(=O)c1ccc(Br)cc1)NCCc1ccc(Cl)cc1
EC50 [24]: 7.06 µM (active)
